Patent US20150283127A1, “SAQUINAVIR-NO FOR IMMUNOMODULATION” (ONCONOX APS, priority 2012, published 2015)

Legend:
[1] = tested on: rat LNC; experiment: Cytokine generation (ELISA) in ConA-stimulated rat LNC; type: cell-based; conditions: 24 hours, vs untreated control cells
Description: Experimental animals (C57BL/6 mice, BALB/c mice and Dark Agouti rats) were obtained from the Animal House Facility of the Institute for Biological Research “Sinisa Stanković”, Belgrade, Serbia. Spleen cells (SPC) were isolated from murine spleens and lymph node cells (LNC) were obtained from rat cervical lymph nodes of untreated animals. Draining lymph node cells (DLNC) were obtained from popliteal lymph nodes 8-10 days after immunization of rats with myelin basic protein (guinea pig MBP, kind gift from professor Alexander Fluegel, University of Goettingen, Germany) and complete Freund's adjuvant (CFA, Difco, Detroit, Mich.). […] Obtained purity of CD4 population was more than 97% as determined by flow cytometry. […]
Cytokine concentration in cell culture supernatants was determined by sandwich ELISA using MaxiSorp plates (Nunc, Rochild, Denmark) and anti-cytokine paired antibodies according to the manufacturer's instructions. Samples were analyzed in duplicate for murine/rat IL-17, murine IL-10, murine TNF, murine IL-4 (eBioscience), murine IFN-γ, rat IFN-γ, rat IL-4 (R&D, Minneapolis, Minn.), rat IL-10 and rat TNF (BD Biosciences). The results were calculated using standard curves made on the basis of known concentrations of the appropriate recombinant cytokines. […]

[2] = tested on: murine SPC; experiment: Viability of murine SPC (MTT mitochondrial activity assay); type: cell-based, mouse; conditions: minor compared with the influence on cytokines
Description: Experimental animals (C57BL/6 mice, BALB/c mice and Dark Agouti rats) were obtained from the Animal House Facility of the Institute for Biological Research “Sinisa Stanković”, Belgrade, Serbia. Spleen cells (SPC) were isolated from murine spleens and lymph node cells (LNC) were obtained from rat cervical lymph nodes of untreated animals. Draining lymph node cells (DLNC) were obtained from popliteal lymph nodes 8-10 days after immunization of rats with myelin basic protein (guinea pig MBP, kind gift from professor Alexander Fluegel, University of Goettingen, Germany) and complete Freund's adjuvant (CFA, Difco, Detroit, Mich.). The organs were mechanically disrupted, passed through 40-μm nylon mesh filter and the resulting suspension was collected by centrifugation. Red blood cells from single cell suspensions obtained from spleens were lysed using RBC Lysis Buffer (eBioscience, San Diego, Calif.). […] Obtained purity of CD4 population was more than 97% as determined by flow cytometry. […]
(§1) In order to assess the viability of SPC, LNC, DLNC and SCC by mitochondrial activity assay we used the mitochondrial-dependent reduction of 3-(4,5-dimethylthiazol-2-yl)-2,5-[…] bromide (MTT) to formazan. […] The absorbances in MTT assay were measured at […], with a correction at 690 nm, using an automated microplate reader (LKB 5060-006, LKB, Vienna, Austria).

[3] = tested on: DLNC; experiment: Viability of rat DLNC (MTT); type: cell-based; conditions: DLNC restimulated with MBP
Description: Experimental animals (C57BL/6 mice, BALB/c mice and Dark Agouti rats) were obtained from the Animal House Facility of the Institute for Biological Research “Sinisa Stanković”, Belgrade, Serbia. Spleen cells (SPC) were isolated from murine spleens and lymph node cells (LNC) were obtained from rat cervical lymph nodes of untreated animals. Draining lymph node cells (DLNC) were obtained from popliteal lymph nodes 8-10 days after immunization of rats with myelin basic protein (guinea pig MBP, kind gift from professor Alexander Fluegel, University of Goettingen, Germany) and complete Freund's adjuvant (CFA, Difco, Detroit, Mich.). The organs were mechanically disrupted, passed through 40-μm nylon mesh filter and the resulting suspension was collected by centrifugation. […] Obtained purity of CD4 population was more than 97% as determined by flow cytometry. […]
as §1
Next, we determined the influence of Saq-NO on encephalitogen-specific generation of IFN-g and IL-17. […]

[4] = mice subjected to the treatment; cited from earlier work
[5] = tested on: HIV; conditions: cited from earlier work
[6] = tested on: human PBMC; conditions: PMA plus ionomycin, cited from earlier work
[7] = tested on: peripheral blood mononuclear cells; conditions: concentrations between 5 and 20 mM; cited from earlier work

Row | SMILES | Release of the examined cytokines IFN-g, IL-17, IL-10 and TNF [1] | SPC viability [2] | DLNC viability [3] | Toxicity in mice [4] | Anti-HIV potency relative to parental drug [5] | TNF-alpha synthesis ([6]; 10 to 20 μM) | Synthesis of IL-2 and IFN-gamma production ([6]; concentration between 10 and 20 μM) | PHA or anti-CD3-induced proliferation [7]
1 | CC(C)(C)NC(=O)C1C[C@@H]2CCCC[C@@H]2CN1CC(O[N+](=O)[O-])[C@H](Cc1ccccc1)NC(=O)C(CC(N)=O)NC(=O)c1ccc2ccccc2n1 (some centres unmarked) [Saq-NO, nitric ester of Saquinavir] | dose-dependently inhibited | statistically significantly inhibited | much less than its influence on IFN-g and IL-17 production | no toxicity | retained | – | – | –
2 | CC(C)(C)NC(=O)[C@@H]1C[C@@H]2CCCC[C@@H]2CN1C[C@@H](O)[C@H](Cc1ccccc1)NC(=O)[C@H](CC(N)=O)NC(=O)c1ccc2ccccc2n1 [Saq, (2S)—N-[(2S,3R)-4-[(3S)-3-(tert-butylcarbamoyl)-decahydroisoquinolin-2-iy]-3-hydroxy-1-phenylbutan-2-il]-2-(quinolin-2-ylformamido)butanediamide, reference compound] | – | – | – | – | – | without influencing | downregulate | inhibited
